Assay results as given in patent publication US20190359756A1, “OPTICAL MEMBER FORMING COMPOSITION” (Mitsubishi Gas Chemical Company, Inc., priority 2016, published 2019).

Experiments:
Format in all cases: physicochemical
[1] = Transparency (absorption constant) of optical member forming film; details: wavelength 633 nm, film thickness 1000 nm, baked at 110° C. for 60 seconds
Description: (§1) The compound was dissolved at 5% by mass in propylene glycol methyl ether to prepare an optical member forming material. Next, a silicon substrate was spin coated with the optical member forming material, and then baked at 110° C. for 60 seconds to form an optical member forming film with a film thickness of 1000 nm.
(§2) Subsequently, the refractive index and transparency tests at a wavelength of 633 nm were conducted using a vacuum ultraviolet variable angle spectroscopic ellipsometer (VUV-VASE) manufactured by J. A. Woollam Co., Inc. The refractive index and the transparency were evaluated according to the following criteria.
A: The absorption constant was less than 0.03.
B: The absorption constant was 0.03 or more and less than 0.05.
C: The absorption constant was 0.05 or more.

[2] = Solubility test in propylene glycol monomethyl ether acetate; details: 23° C., ultrasonic waves 30 minutes, amount of complete dissolution
Description: The solubility was evaluated by precisely weighing the compound into a test tube, adding propylene glycol monomethyl ether acetate at 23° C. so as to attain a predetermined concentration, applying ultrasonic waves for 30 minutes in an ultrasonic cleaner, then visually observing the subsequent state of the fluid, determining the concentration of the amount of complete dissolution, and conducting evaluation according to the following criteria.
A: 5.0% by mass Amount of dissolution
B: 3.0% by mass Amount of dissolution <5.0% by mass
C: Amount of dissolution <3.0% by mass

[3] = Refractive index of optical member forming film (spectroscopic ellipsometer); details: wavelength 633 nm, film thickness 1000 nm, baked at 110° C. for 60 seconds
Description: as §1, §2
A: The refractive index was 1.65 or more.
C: The refractive index was less than 1.65.

Film heat resistance = assay: Film heat resistance; parameters: key: A: No defect in the film was visually observed.; C: Defects in the film were visually observed (including disappearance of the film); details: film baked at 110° C. for 5 minutes, visual observation
Description: as §1
The optical member forming film obtained as described above was baked at 110° C. for 5 minutes, and evaluation of film heat resistance was carried out according to the following criteria.
A: No defect in the film was visually observed.
C: Defects in the film were visually observed (including disappearance of the film).

| SMILES | Solubility [2] | Film heat resistance (Film heat resistance) | Absorption constant [1] | Refractive index [3] |
| --- | --- | --- | --- | --- |
| Oc1ccc2ccc3c(c2c1)C(c1ccc(-c2ccc(C4c5c(ccc6ccc(O)cc56)Oc5ccc6ccc(O)cc6c54)cc2)cc1)c1c(ccc2ccc(O)cc12)O3 [XBiN 3] | A (5.0% by mass Amount of dissolution) | A | A (The absorption constant was less than 0.03.) | A (The refractive index was 1.65 or more.) |
| CC(C)Cc1ccc(C2c3c(ccc4cc(O)ccc34)Oc3ccc4cc(O)ccc4c32)cc1 [XBisN 2] | A (5.0% by mass Amount of dissolution) | A | A (The absorption constant was less than 0.03.) | A (The refractive index was 1.65 or more.) |
| CCCc1ccc(C2c3c(ccc4cc(O)ccc34)Oc3ccc4cc(O)ccc4c32)cc1 [XBisN-3] | A (5.0% by mass Amount of dissolution) | A | A (The absorption constant was less than 0.03.) | A (The refractive index was 1.65 or more.) |
| Oc1ccc(C2c3c(ccc4cc(O)ccc34)Oc3ccc4cc(O)ccc4c32)cc1 [XBisN-4] | A (5.0% by mass Amount of dissolution) | A | A (The absorption constant was less than 0.03.) | A (The refractive index was 1.65 or more.) |
| Oc1ccc2c3c(ccc2c1)Oc1ccc2cc(O)ccc2c1C3c1ccc(C2CCCCC2)cc1 [XBisN-5] | A (5.0% by mass Amount of dissolution) | A | A (The absorption constant was less than 0.03.) | A (The refractive index was 1.65 or more.) |
| CC(C)Cc1ccc(C2c3c(ccc4ccc(O)cc34)Oc3ccc4ccc(O)cc4c32)cc1 [XBisN-6] | A (5.0% by mass Amount of dissolution) | A | A (The absorption constant was less than 0.03.) | A (The refractive index was 1.65 or more.) |
| CCCc1ccc(C2c3c(ccc4ccc(O)cc34)Oc3ccc4ccc(O)cc4c32)cc1 [XBisN-7] | A (5.0% by mass Amount of dissolution) | A | A (The absorption constant was less than 0.03.) | A (The refractive index was 1.65 or more.) |
| Oc1ccc(C2c3c(ccc4ccc(O)cc34)Oc3ccc4ccc(O)cc4c32)cc1 [XBisN-8] | A (5.0% by mass Amount of dissolution) | A | A (The absorption constant was less than 0.03.) | A (The refractive index was 1.65 or more.) |
| Oc1ccc2ccc3c(c2c1)C(c1ccc(C2CCCCC2)cc1)c1c(ccc2ccc(O)cc12)O3 [XBisN-9] | A (5.0% by mass Amount of dissolution) | A | A (The absorption constant was less than 0.03.) | A (The refractive index was 1.65 or more.) |
| Oc1ccc2c3c(ccc2c1)Oc1ccc2cc(O)ccc2c1C3c1ccc(-c2ccc(C3c4c(ccc5cc(O)ccc45)Oc4ccc5cc(O)ccc5c43)cc2)cc1 [XiN-3] | A (5.0% by mass Amount of dissolution) | A | A (The absorption constant was less than 0.03.) | A (The refractive index was 1.65 or more.) |

The next lines start with results.

| Solubility [2] | Film heat resistance (Film heat resistance) | SMILES | Absorption constant [1] | Refractive index [3] |
| --- | --- | --- | --- | --- |
| A (5.0% by mass Amount of dissolution) | A | Oc1ccc(C(c2ccc(-c3ccccc3)cc2)c2ccc(O)c(-c3ccccc3)c2)cc1-c1ccccc1 [BiP-1] | A (The absorption constant was less than 0.03.) | A (The refractive index was 1.65 or more.) |
| A (5.0% by mass Amount of dissolution) | A | Oc1ccc(-c2ccc(O)c(C(c3ccc(-c4ccccc4)cc3)c3cc(-c4ccc(O)cc4)ccc3O)c2)cc1 [BiP-2] | A (The absorption constant was less than 0.03.) | A (The refractive index was 1.65 or more.) |
| A (5.0% by mass Amount of dissolution) | A | Oc1ccc(C(c2ccc(-c3ccccc3)cc2)c2ccc(O)cc2O)c(O)c1 [Example P-5] | A (The absorption constant was less than 0.03.) | A (The refractive index was 1.65 or more.) |
| A (5.0% by mass Amount of dissolution) | A | Oc1ccc(C(c2ccccc2)c2ccc(O)cc2O)c(O)c1 [Example P-6] | A (The absorption constant was less than 0.03.) | A (The refractive index was 1.65 or more.) |
| A (5.0% by mass Amount of dissolution) | A | Oc1ccc(C(c2ccc(C3CCCCC3)cc2)c2ccc(O)cc2O)c(O)c1 [Example P-7] | A (The absorption constant was less than 0.03.) | A (The refractive index was 1.65 or more.) |
| A (5.0% by mass Amount of dissolution) | A | Oc1ccc2c3c(ccc2c1)Oc1ccc2cc(O)ccc2c1C3c1ccc(-c2ccccc2)cc1 [XiN-1] | A (The absorption constant was less than 0.03.) | A (The refractive index was 1.65 or more.) |
